Reference: ChEMBL document CHEMBL1201862, “PubChem BioAssay data set” (2004)
The source made the active and inactive calls.

Assays:
[1] = cells; conditions: HEK293
[2] = target: Major prion protein (Homo sapiens, UniProt P04156); assay type: functional, cell-based
[3] = cells
[4] = Luminescence-based cell-based high throughput dose response assay to identify activators of the DAF-12 from the parasite S. stercoralis (ssDAF-12).; assay type: functional
[5] = target: T1, Oxysterols receptor LXR-beta (Homo sapiens, UniProt P55055); assay: LXR agonists, Gal4 luciferase reporter, dose response, counter-screen for ssDAF-12 agonist project, cell-based, luminescence, HEK293, S. stercoralis campaign (AID 720737); assay type: functional; conditions: read-out: IC50 (the source's name)
T1 sequence (P55055 whole entry): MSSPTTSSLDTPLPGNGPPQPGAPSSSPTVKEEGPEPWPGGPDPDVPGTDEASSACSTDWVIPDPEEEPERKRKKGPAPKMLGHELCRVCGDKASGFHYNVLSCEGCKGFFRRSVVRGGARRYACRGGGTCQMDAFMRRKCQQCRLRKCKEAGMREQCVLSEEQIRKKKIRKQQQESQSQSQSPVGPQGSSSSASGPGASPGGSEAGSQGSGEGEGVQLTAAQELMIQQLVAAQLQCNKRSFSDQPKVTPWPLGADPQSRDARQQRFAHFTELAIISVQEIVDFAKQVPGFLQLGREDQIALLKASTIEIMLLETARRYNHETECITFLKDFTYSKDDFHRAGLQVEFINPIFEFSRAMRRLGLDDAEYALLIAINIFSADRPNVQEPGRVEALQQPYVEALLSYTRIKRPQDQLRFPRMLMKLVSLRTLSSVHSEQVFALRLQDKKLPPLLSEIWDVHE

[6] = target: T2, Serine/threonine-protein phosphatase (Candida dubliniensis (strain CD36 / CBS 7987 / NCPF 3949 / NRRLY-17841) (Yeast), UniProt B9W6M3); assay: blockers of CaCl2-induced CDRE-lacZ signaling – S. cerevisiae, luminescence, secondary, dose response (AID 2388); assay type: functional, cell-based;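 also: yeast reporter cells carrying a calcineurin-responsive lacZ construct stimulated with calcium chloride; luminescent beta-galactosidase reporter signal in whole cells rather than isolated phosphatase activity; potency for inhibition where a drop in reporter signal means calcineurin blockade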
T2 sequence (B9W6M3 whole entry): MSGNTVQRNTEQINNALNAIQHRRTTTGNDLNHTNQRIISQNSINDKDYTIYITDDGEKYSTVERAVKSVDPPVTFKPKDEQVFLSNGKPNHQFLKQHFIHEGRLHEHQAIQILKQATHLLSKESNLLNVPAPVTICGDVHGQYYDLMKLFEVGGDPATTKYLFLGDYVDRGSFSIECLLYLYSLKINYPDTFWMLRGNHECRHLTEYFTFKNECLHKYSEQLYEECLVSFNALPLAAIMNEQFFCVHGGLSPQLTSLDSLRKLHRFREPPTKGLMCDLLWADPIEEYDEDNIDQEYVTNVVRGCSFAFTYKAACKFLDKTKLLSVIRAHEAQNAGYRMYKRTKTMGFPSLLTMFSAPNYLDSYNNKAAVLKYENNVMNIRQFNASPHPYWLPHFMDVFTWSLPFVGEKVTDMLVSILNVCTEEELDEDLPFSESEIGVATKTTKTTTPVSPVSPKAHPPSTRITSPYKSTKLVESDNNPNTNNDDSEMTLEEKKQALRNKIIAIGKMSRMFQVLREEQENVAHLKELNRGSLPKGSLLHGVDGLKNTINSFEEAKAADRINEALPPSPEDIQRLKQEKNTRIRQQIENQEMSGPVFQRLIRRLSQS

[7] = fluconazole-exposed Candida albicans growth modulators – fluorescence, retest, confirmation (AID 2467); assay type: functional, cell-based
[8] = NIH-3T3 fibroblast cytotoxicity, dose response, cytotoxicity control, cell-based, fluorescence, Alamar Blue, secondary assay (AID 2327); assay type: functional;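 also: NIH-3T3 mouse fibroblasts cultured with fluconazole at 8 µg/mL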
[9] = target: ATP-dependent molecular chaperone HSP82 (Candida albicans (strain WO-1) (Yeast), UniProt C4YTQ8); assay: steroid-induced GRE reporter decrease in yeast – S. cerevisiae, luminescence, Hsp90 inhibitor project, dose response (AID 2400); assay type: functional, cell-based;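 also: beta-galactosidase luminescence from glucocorticoid response element reporter as proxy for Hsp90 function; inhibitor potency where signal loss means Hsp90 inhibition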
[10] = system: HEK293; assay: EBV LMP1 TES2 canonical NF-kB signalling blockers – cell-based, HEK293, luciferase, cherry-pick, dose response (AID 588343); assay type: functional; conditions: Homo sapiens
[11] = HGIII-sPLA2 enzyme inhibition potency – biochemical, QFRET, IC50, dose response (AID 743457);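 also: green fluorescence rise as the enzyme cleaves BODIPY PC-A2 in liposomes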
[12] = target: 1-phosphatidylinositol 4,5-bisphosphate phosphodiesterase gamma-1 (Homo sapiens, UniProt P19174); assay: Counterscreen for inhibitors of phospholipase C isozymes (PLC-B3): Fluorescence-based biochemical high throughput dose response assay to identify inhibitors of phospholipase C isozymes (PLC-gamma1).
[13] = target: 1-phosphatidylinositol 4,5-bisphosphate phosphodiesterase beta-3 (Homo sapiens, UniProt Q01970); assay: Fluorescence-based biochemical high throughput dose response assay to identify inhibitors of phospholipase C isozymes (PLC-B3).
[14] = target: Cytochrome P450 2C9 (Homo sapiens, UniProt P11712)
[15] = target: T3, Cytochrome P450 1A2 (Homo sapiens, UniProt P05177);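 also: PubChem cytochrome P450 panel assay, CYP1A2 panel member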
T3 sequence (P05177 whole entry): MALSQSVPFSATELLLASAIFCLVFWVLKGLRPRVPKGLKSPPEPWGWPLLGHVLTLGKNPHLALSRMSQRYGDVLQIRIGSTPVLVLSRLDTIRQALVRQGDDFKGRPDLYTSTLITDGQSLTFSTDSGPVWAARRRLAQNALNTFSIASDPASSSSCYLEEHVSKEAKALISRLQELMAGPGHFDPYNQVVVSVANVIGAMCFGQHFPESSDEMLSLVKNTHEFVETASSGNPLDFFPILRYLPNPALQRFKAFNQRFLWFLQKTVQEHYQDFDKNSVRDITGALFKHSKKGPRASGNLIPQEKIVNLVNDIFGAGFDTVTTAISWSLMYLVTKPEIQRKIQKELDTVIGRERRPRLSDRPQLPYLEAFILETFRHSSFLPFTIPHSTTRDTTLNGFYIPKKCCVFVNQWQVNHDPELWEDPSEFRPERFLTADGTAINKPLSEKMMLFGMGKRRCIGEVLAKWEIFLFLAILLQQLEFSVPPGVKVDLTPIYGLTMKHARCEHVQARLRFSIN

[16] = target: T4, Corticotropin-releasing factor receptor 2/Corticotropin-releasing factor-binding protein (Homo sapiens, UniProt P24387+Q13324); assay: Dose Response confirmation of uHTS hits for small molecule antagonists of the CRF-binding protein and CRF-R2 receptor complex.; assay type: functional; conditions: read-out: IC50_Mean
T4 sequence (Q13324 whole entry): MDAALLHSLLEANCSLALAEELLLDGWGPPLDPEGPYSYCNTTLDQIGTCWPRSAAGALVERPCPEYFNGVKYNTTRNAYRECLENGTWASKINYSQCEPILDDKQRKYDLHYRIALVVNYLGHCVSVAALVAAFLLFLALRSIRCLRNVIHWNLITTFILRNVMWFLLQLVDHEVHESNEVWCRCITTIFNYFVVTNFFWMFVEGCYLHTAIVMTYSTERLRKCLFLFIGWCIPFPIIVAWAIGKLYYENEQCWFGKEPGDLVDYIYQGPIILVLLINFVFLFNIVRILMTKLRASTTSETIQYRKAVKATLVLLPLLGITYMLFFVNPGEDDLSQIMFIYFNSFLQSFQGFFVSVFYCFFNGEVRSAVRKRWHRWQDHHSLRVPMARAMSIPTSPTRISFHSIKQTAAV
T4 sequence (P24387 whole entry): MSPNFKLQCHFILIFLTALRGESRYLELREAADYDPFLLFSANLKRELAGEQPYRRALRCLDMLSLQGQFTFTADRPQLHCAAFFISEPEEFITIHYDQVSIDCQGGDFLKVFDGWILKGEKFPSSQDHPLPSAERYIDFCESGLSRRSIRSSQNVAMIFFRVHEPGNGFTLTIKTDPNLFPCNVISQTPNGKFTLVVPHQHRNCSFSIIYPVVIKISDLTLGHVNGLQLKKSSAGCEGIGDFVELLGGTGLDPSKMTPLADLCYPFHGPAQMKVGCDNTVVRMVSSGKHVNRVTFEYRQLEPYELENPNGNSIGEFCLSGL

[17] = target: Caspase-6 (Homo sapiens, UniProt P55212); assay: inhibition of CASP6 peptide cleavage – biochemical, VEID-R110 fluorescence, cherry-pick, dose response (AID 720632)
[18] = target: NAD-dependent protein deacylase sirtuin-5, mitochondrial (Homo sapiens, UniProt Q9NXA8); assay: sirtuin-5 deacylation blockers, concentration series – biochemical, fluorescence imaging, cherry-pick, set 5, dose response (AID 720591);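 also: desuccinylation of succinyl peptide AMC substrate read as fluorescence after trypsin release; potency of inhibitors that lower fluorescence and may act on trypsin instead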
[19] = target: T5, Voltage-gated N-type calcium channel alpha-1B subunit/Amyloid beta A4 precursor protein-binding family A member 1 (Homo sapiens, UniProt Q00975+Q02410); assay type: protein assay
[20] = target: T5, Voltage-gated N-type calcium channel alpha-1B subunit/Amyloid beta A4 precursor protein-binding family A member 1; assay type: protein assay; remark: listed apart in the source
[21] = target: T4, Corticotropin-releasing factor receptor 2/Corticotropin-releasing factor-binding protein; assay: activators of CRF receptor 2 with binding protein – uHTS hits, confirmation (AID 602473); assay type: functional; conditions: read-out: EC50_Mean
[22] = target: fMet-Leu-Phe receptor (Homo sapiens, UniProt P21462); assay: formyl peptide receptor binders – dose response (AID 519); assay type: functional
[23] = target: T6, Trace amine-associated receptor 1 (Homo sapiens, UniProt Q96RJ0); assay: Fluorescence-based cell-based high throughput dose response assay to identify agonists of the human trace amine associated receptor 1 (TAAR1).; assay type: functional
T6 sequence (Q96RJ0 whole entry): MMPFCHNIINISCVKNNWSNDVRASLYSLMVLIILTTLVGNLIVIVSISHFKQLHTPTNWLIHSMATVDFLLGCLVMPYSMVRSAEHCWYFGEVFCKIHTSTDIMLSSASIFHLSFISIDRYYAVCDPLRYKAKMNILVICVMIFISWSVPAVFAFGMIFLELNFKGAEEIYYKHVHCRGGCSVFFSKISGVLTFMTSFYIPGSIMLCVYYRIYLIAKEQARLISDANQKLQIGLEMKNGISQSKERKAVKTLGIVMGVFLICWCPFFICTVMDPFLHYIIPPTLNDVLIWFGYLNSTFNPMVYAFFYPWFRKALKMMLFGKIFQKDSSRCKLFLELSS

[24] = cells; assay type: functional, cell-based
[25] = target: T6, Trace amine-associated receptor 1; assay: Counterscreen for agonists of the human trace amine associated receptor 1 (hTAAR1): Fluorescence-based cell-based high throughput dose response assay to identify hTAAR1 agonist that also desensitize TAAR1 receptor response.; assay type: functional
[26] = cells; assay type: functional, cell-based; remark: listed apart in the source
[27] = target: Cytochrome P450 2D6 (Homo sapiens, UniProt P10635);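 also: CYP2D6 member of a cytochrome P450 panel assay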
[28] = reduced cellular PGC1a acetyl-lysine signal – cell-based, cherry-picked samples, dose response (AID 720514); assay type: functional;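 also: potency may reflect raised or lowered acetylation signal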
[29] = target: T1, Oxysterols receptor LXR-beta; assay type: functional, cell-based

COc1cc(/C=C(\C#N)C(=O)NC(C)C)cc(Cl)c1O
AC50 [1]: 50.3 µM (active)

CCc1nc(SCC(=O)Nc2ccc(N(C)C)cc2)c2ccccc2n1
IC50 [2]: 4.47 µM (active) | IC50 [3]: > 138 µM (inactive)

O=c1oc(-c2cc3ccccc3o2)nc2sc3c(c12)CCCC3
IC50 [4]: > 67.5 µM (inactive) | EC50 [5]: > 67.5 µM (inactive)

Cc1ccc(-n2nc(C)c3c(C)cc(O)nc32)cc1
IC50 [4]: > 67.5 µM (inactive) | EC50 [6]: > 180 µM (inactive) | EC50 [5]: > 67.5 µM (inactive) | EC50 [7]: 1.54 µM (active) | EC50 [8]: > 150 µM (inactive) | EC50 [9]: > 150 µM (inactive)

NC(=S)NN=Cc1nccc2c(C(F)(F)C(F)(F)C(F)(F)F)cccc12
AC50 [10]: 0.643 µM (active) | IC50 [11]: 31.9 µM (inactive)

O=C(C[S+]([O-])c1cccc(Cl)c1)Nc1ccccc1Cl (stereo unspecified)
IC50 [12]: > 122 µM (inactive) | IC50 [13]: > 122 µM (inactive) | AC50 [14]: inconclusive | AC50 [15]: 15.8 µM (inconclusive)

COc1cc2c(cc1OC)-c1cc(Nc3ccc(C(=O)O)cc3)nc(=O)n1CC2
IC50 [16]: > 47.1 µM (inactive) | AC50 [17]: 28.9 µM (active) | AC50 [18]: 4.29 µM (active) | IC50 [19]: > 50 µM (inactive) | IC50 [20]: 17.6 µM (active) | EC50 [21]: > 53 µM (inactive)

CCn1cc(C(=O)NC2CCC(C)CC2)c(=O)c2cc(S(=O)(=O)N3CCCCC3)ccc21 (stereo unspecified)
Ki [22]: > 66.7 µM (inactive)

Cn1cccc1CNCCc1ccccc1F
EC50 [23]: 1.74 µM (active) | EC50 [24]: > 29.9 µM (inactive) | IC50 [25]: 8.12 µM (active) | IC50 [26]: > 29.9 µM (inactive)

CCOC(=O)c1ccc(NC(=O)Nc2ccc3c4c(cccc24)C(=O)N3CC)cc1
Ki [22]: > 66.7 µM (inactive) | AC50 [27]: 17.8 µM (inconclusive)

c1ccc(CC/N=C2\CCCc3c2[nH]c2ccccc32)cc1
EC50 [23]: 0.106 µM (active) | EC50 [24]: > 29.9 µM (inactive) | IC50 [25]: 0.341 µM (active) | IC50 [26]: > 29.9 µM (inactive)

Cc1ccc(S(=O)(=O)N2CCCCC2C(=O)O)cc1 (stereo unspecified)
AC50 [28]: 17.6 µM (active)

Cc1ccc(NS(=O)(=O)c2cc(C(=O)NCc3ccccn3)ccc2Cl)cc1C
IC50 [2]: 13 µM (inactive) | IC50 [3]: > 138 µM (inactive)

O=C(NN=C(S)Nc1cccc(Cl)c1)c1ccccc1OC(F)F
IC50 [11]: > 122 µM (inactive)

Cc1cc(NC(=O)c2ccc3c(c2)OCO3)ccc1NC(=O)c1ccccc1
IC50 [12]: > 122 µM (inactive) | IC50 [13]: > 122 µM (inactive)

Brc1ccc(-c2noc(-c3ccccn3)n2)o1
EC50 [29]: > 67.5 µM (inactive)
